Measurements as given in PubChem BioAssay (NCI).
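Interpolation was linear, between the two tested concentrations surrounding the appropriate level; five concentrations were tested over 48 hours in 96-well plates. Abbreviation: GI50, concentration required for 50% inhibition of growth. The concentration for full growth arrest is given as TGI.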

Legend:
Experiment in all cases: NCI tumour cell line growth inhibition, 48 h
[1] = system: CAKI-1 renal
[2] = system: IGROV1 ovarian
[3] = system: SNB-75 CNS
[4] = system: MDA-MB-435
[5] = system: UACC-257 melanoma
[6] = system: HCT-15 colon
[7] = system: OVCAR-8 ovarian
[8] = system: SW-620 colon
[9] = system: HOP-62 NSCLC
[10] = system: OVCAR-3 ovarian
[11] = system: T-47D breast
[12] = system: NCI-H522 lung
[13] = system: HCT-116 colon
[14] = system: HT29 colon
[15] = system: HCC-2998 colon
[16] = system: RXF 393 renal
[17] = system: ACHN renal
[18] = system: EKVX NSCLC
[19] = system: SF-268 CNS
[20] = system: RPMI-8226 leukemia
[21] = system: KM12 colon
[22] = system: M14 melanoma
[23] = system: HOP-92 NSCLC
[24] = system: OVCAR-5 ovarian
[25] = system: CCRF-CEM leukemia
[26] = system: MDA-MB-231 breast
[27] = system: SK-MEL-28 melanoma
[28] = system: SN12C renal
[29] = system: TK-10 renal
[30] = system: A498 renal
[31] = system: BT-549 breast
[32] = system: SK-OV-3 ovarian
[33] = system: HS 578T breast
[34] = system: NCI-H460 lung
[35] = system: OVCAR-4 ovarian
[36] = system: U251 CNS
[37] = system: A549 NSCLC
[38] = system: MDA-MB-468 breast
[39] = system: PC-3 prostate
[40] = system: SK-MEL-2 melanoma
[41] = system: UACC-62 melanoma
[42] = system: MOLT-4 leukemia
[43] = system: SK-MEL-5 melanoma
[44] = system: MALME-3M melanoma
[45] = system: LOX IMVI melanoma
[46] = system: NCI-H226 lung
[47] = system: COLO 205 colon
[48] = system: DU-145 prostate
[49] = system: SF-295 CNS
[50] = system: 786-0 renal
[51] = system: NCI-H23 lung
[52] = system: HL-60(TB) leukemia
[53] = system: K-562 leukemia
[54] = system: MCF7 breast
[55] = system: SR leukemia
[56] = system: UO-31 renal
[57] = system: SF-539 CNS
[58] = system: SNB-19 CNS
[59] = system: NCI/ADR-RES ovarian

SMILES: COc1cccc(NC(=O)c2ccc(NC(=O)CCl)s2)c1
- GI50 [1]: 16.1 µM
- TGI [1]: 42 µM
- GI50 [2]: 16.8 µM
- TGI [2]: 35.5 µM
- GI50 [3]: 11.7 µM
- TGI [3]: > 100 µM
- GI50 [4]: 18.6 µM
- TGI [4]: 60.9 µM
- GI50 [5]: 55.3 µM
- TGI [5]: > 100 µM
- GI50 [6]: 11.3 µM
- TGI [6]: 40.5 µM
- GI50 [7]: 18.5 µM
- TGI [7]: 39.3 µM
- GI50 [8]: 13.4 µM
- TGI [8]: 30.5 µM
- GI50 [9]: 56.7 µM
- TGI [9]: > 100 µM
- GI50 [10]: 16.7 µM
- TGI [10]: 33.8 µM
- GI50 [11]: 34.5 µM
- TGI [11]: > 100 µM
- GI50 [12]: 13.9 µM
- TGI [12]: 30.8 µM
- GI50 [13]: 22.4 µM
- TGI [13]: 88.9 µM
- GI50 [14]: 20.3 µM
- TGI [14]: 44.2 µM
- GI50 [15]: 47.8 µM
- TGI [15]: > 100 µM
- GI50 [16]: 13.6 µM
- TGI [16]: 36.9 µM
- GI50 [17]: 17.4 µM
- TGI [17]: 35.9 µM
- GI50 [18]: 26.4 µM
- TGI [18]: > 100 µM
- GI50 [19]: 25 µM
- TGI [19]: > 100 µM
- GI50 [20]: 18.7 µM
- TGI [20]: 46.8 µM
- GI50 [21]: 21.2 µM
- TGI [21]: 54.1 µM
- GI50 [22]: 16.3 µM
- TGI [22]: 39.4 µM
- GI50 [23]: 15.4 µM
- TGI [23]: 34.7 µM
- GI50 [24]: 21 µM
- TGI [24]: 46.8 µM
- GI50 [25]: 6.87 µM
- TGI [25]: 51.2 µM
- GI50 [26]: 15.6 µM
- TGI [26]: 32.6 µM
- GI50 [27]: 20.6 µM
- TGI [27]: 52.6 µM
- GI50 [28]: 16.1 µM
- TGI [28]: 33.2 µM
- GI50 [29]: > 100 µM
- TGI [29]: > 100 µM
- GI50 [30]: > 100 µM
- TGI [30]: > 100 µM
- GI50 [31]: 12.2 µM
- TGI [31]: 29.1 µM
- GI50 [32]: 27 µM
- TGI [32]: 66.5 µM
- GI50 [33]: 20.3 µM
- TGI [33]: 61.1 µM
- GI50 [34]: 20.8 µM
- TGI [34]: 45.2 µM
- GI50 [35]: 39.2 µM
- TGI [35]: > 100 µM
- GI50 [36]: 16.8 µM
- TGI [36]: 31.5 µM
- GI50 [37]: 21.7 µM
- TGI [37]: 53.9 µM
- GI50 [38]: 14.2 µM
- TGI [38]: 30.6 µM
- GI50 [39]: 14.9 µM
- TGI [39]: 34.9 µM
- GI50 [40]: 28.6 µM
- TGI [40]: > 100 µM
- GI50 [41]: 15.3 µM
- TGI [41]: 29.2 µM
- GI50 [42]: 12.5 µM
- TGI [42]: 55.8 µM
- GI50 [43]: 17.4 µM
- TGI [43]: 34.6 µM
- GI50 [44]: 12.5 µM
- TGI [44]: 28.5 µM
- GI50 [45]: 11.4 µM
- TGI [45]: 25.1 µM
- GI50 [46]: 15.8 µM
- TGI [46]: 39.2 µM
- GI50 [47]: 27.9 µM
- TGI [47]: 70.8 µM
- GI50 [48]: 36.4 µM
- TGI [48]: > 100 µM
- GI50 [49]: 46.6 µM
- TGI [49]: > 100 µM
- GI50 [50]: 17.1 µM
- TGI [50]: 33 µM
- GI50 [51]: 17.2 µM
- TGI [51]: 35.5 µM
- GI50 [52]: 17.4 µM
- TGI [52]: 99 µM
- GI50 [53]: 16.4 µM
- TGI [53]: > 100 µM
- GI50 [54]: 20.1 µM
- TGI [54]: 66.4 µM
- GI50 [55]: 4.92 µM
- TGI [55]: 56.2 µM
- GI50 [56]: 13.7 µM
- TGI [56]: 27.6 µM
- GI50 [57]: 16.7 µM
- TGI [57]: 31 µM
- GI50 [58]: 21.8 µM
- TGI [58]: 65.8 µM

SMILES: C/C(=N/O)c1ccc(NC(=O)CSc2nnc(-c3ccc4nc(-c5ccc(Cl)cc5)[nH]c4c3)o2)cc1
- GI50 [1]: 12.3 µM
- TGI [1]: 28.5 µM
- GI50 [59]: > 100 µM
- TGI [59]: > 100 µM
- GI50 [2]: 16.2 µM
- TGI [2]: 30.5 µM
- GI50 [3]: 5.87 µM
- TGI [3]: 22.8 µM
- GI50 [4]: 3.79 µM
- TGI [4]: 15 µM
- GI50 [5]: 12.9 µM
- TGI [5]: 29.8 µM
- GI50 [6]: 56.9 µM
- TGI [6]: > 100 µM
- GI50 [7]: 3.29 µM
- TGI [7]: 15.1 µM
- GI50 [8]: 22 µM
- TGI [8]: 59.5 µM
- GI50 [9]: 2.57 µM
- TGI [9]: 8.69 µM
- GI50 [10]: 18.8 µM
- TGI [10]: 38 µM
- GI50 [11]: 17.3 µM
- TGI [11]: 41.9 µM
- GI50 [12]: 3.48 µM
- TGI [12]: 17.2 µM
- GI50 [13]: 4.78 µM
- TGI [13]: 37.7 µM
- GI50 [14]: 9.34 µM
- TGI [14]: 29.8 µM
- GI50 [15]: 43.2 µM
- TGI [15]: > 100 µM
- GI50 [16]: 2.38 µM
- TGI [16]: 8.16 µM
- GI50 [17]: 15.8 µM
- TGI [17]: 35 µM
- GI50 [18]: 18 µM
- TGI [18]: 45.1 µM
- GI50 [19]: 12.7 µM
- TGI [19]: 30.5 µM
- GI50 [20]: 13.6 µM
- TGI [20]: 71.5 µM
- GI50 [21]: 16.7 µM
- TGI [21]: 43 µM
- GI50 [22]: 3.38 µM
- TGI [22]: 15 µM
- GI50 [23]: 3.12 µM
- TGI [23]: 9.48 µM
- GI50 [24]: 17.8 µM
- TGI [24]: 36.1 µM
- GI50 [25]: 3.05 µM
- TGI [25]: > 100 µM
- GI50 [26]: 2.22 µM
- TGI [26]: 5.35 µM
- GI50 [27]: 2.23 µM
- TGI [27]: 5.14 µM
- GI50 [28]: 4.04 µM
- TGI [28]: 15.5 µM
- GI50 [29]: 28.4 µM
- TGI [29]: 56.4 µM
- GI50 [30]: 21.3 µM
- TGI [30]: 37.1 µM
- GI50 [31]: 4.36 µM
- TGI [31]: 20.5 µM
- GI50 [32]: 20.4 µM
- TGI [32]: 39.4 µM
- GI50 [33]: 3.63 µM
- TGI [33]: 28.6 µM
- GI50 [34]: 12.7 µM
- TGI [34]: 32.4 µM
- GI50 [35]: 18.7 µM
- TGI [35]: 42 µM
- GI50 [36]: 3.03 µM
- TGI [36]: 8.87 µM
- GI50 [37]: 8.19 µM
- TGI [37]: 28.1 µM
- GI50 [38]: 18.5 µM
- TGI [38]: 33.7 µM
- GI50 [39]: 3.6 µM
- TGI [39]: 16.3 µM
- GI50 [40]: 13.2 µM
- TGI [40]: 27.8 µM
- GI50 [41]: 3.09 µM
- TGI [41]: 11.1 µM
- GI50 [42]: 3.66 µM
- TGI [42]: > 100 µM
- GI50 [43]: 5.47 µM
- TGI [43]: 18.2 µM
- GI50 [44]: 1.93 µM
- TGI [44]: 4.86 µM
- GI50 [45]: 1.94 µM
- TGI [45]: 4.05 µM
- GI50 [46]: 13.5 µM
- TGI [46]: 32.8 µM
- GI50 [47]: 22.3 µM
- TGI [47]: 66.1 µM
- GI50 [48]: 17.7 µM
- TGI [48]: 33.3 µM
- GI50 [49]: 12.9 µM
- TGI [49]: 28.9 µM
- GI50 [50]: 3.36 µM
- TGI [50]: 11.8 µM
- GI50 [51]: 3.43 µM
- TGI [51]: 16.7 µM
- GI50 [52]: 13.8 µM
- TGI [52]: > 100 µM
- GI50 [53]: 3.39 µM
- TGI [53]: > 100 µM
- GI50 [54]: 6.65 µM
- TGI [54]: 26 µM
- GI50 [56]: 24.8 µM
- TGI [56]: > 100 µM
- GI50 [57]: 10.2 µM
- TGI [57]: 22.1 µM
- GI50 [58]: 12 µM
- TGI [58]: 25.7 µM
